Here are results for four molecules from US11524003B2, “Alpha-amino esters of hydroxypropylthiazolidine carboxamide derivative and salt form, crystal polymorph thereof” (ObsEva S.A., priority 2016, dated 2022).

“Also recorded” adds a separate entry of the source. Counter-ions that a name gives are not always drawn. Like-named read-outs stand apart in the source and are kept apart here. Where a SMILES comes first, the peptide text is derived from it. Bridges are numbered along the chain shown (N, C = ends). [ ]: non-standard residue; d: D form. Orn = NCCC[C@H](N)C(=O)O; Mpa = O=C(O)CCS

Data set [1] in a line: Moisture sorption/desorption and relative humidity stability of compound I salts. The class given is physicochemical. The note with it: for Hygroscopicity: moisture balance data, hydrochloride. As for the experimental part: Moisture sorption/desorption (MB) data were collected on a VTI SGA-100 Vapor Sorption Analyzer. Sorption and desorption data were collected over a range of 5% to 95% relative humidity (RH) at 10% RH intervals under a nitrogen purge. Samples were not dried prior to analysis. Equilibrium criteria used for analysis were less than 0.0100% weight change in 5 minutes, with a maximum equilibration time of 3 hours if the weight criterion was not met. Data were not corrected for the initial moisture content of the samples. NaCl and PVP were used as calibration standards.

In the next data set the test system is LPS-induced parturition. In kind it is in vivo. As to conditions: LPS-treated mice. As to the method: (§1) Tocolytic effects were assessed by measuring the time from induction to delivery of the first pup for each mouse in the treatment and control cohorts, the time from time from induction to completion of delivery among all mice in each cohort, and viability of offspring among mice in each cohort. The inducers of preterm parturition used in this study were RU486 (also referred to as mifepristone), a steroidal antiprogestin that promotes cervical dilatation and provokes enhanced uterine contractility and sensitivity to prostaglandins, and lipopolysaccharide (LPS), a mediator of inflammation.
(§2) To induce labor at an early gestational age, a single dose of RU486 was administered to each mouse subcutaneously at 2.5 mg/kg (t=0). Mice treated with LPS received a single intraperitoneal injection of LPS at 2 mg/kg (t=0). Atosiban was administered to CD-1 mice by subcutaneous injection at 300 mg/kg at two distinct sites. These injections were performed at 5 hours (t=5) and 29 hours (t=29) following treatment with the inducing agent RU486 or LPS. […] Compound III was administered to CD-1 mice orally at either 10 mg/kg, 30 mg/kg, or 100 mg/kg at 5 hours (t=5), 19 hours (t=19), 29 hours (t=29), and 43 hours (t=43) following treatment with the inducing agent RU486 or LPS. […] The viability of pups delivered in each cohort was assessed by galenic hydrostatic pulmonary docimasy.

In data set [2] the test system is RU486-induced parturition. As to the kind of experiment: RU486-induced preterm parturition in CD-1 mice. As for the experimental part: as §1, §2
A short description of data set [3]: Aqueous solubility of compound I salts (FIG. 8). The class given is physicochemical. As to conditions: water.
The mark [4] stands for this setting: nifedipine 5 mg/kg oral, compound III 10 mg/kg oral, alone or combined.

`CC(C)[C@H](N)C(=O)OCC[C@H](NC(=O)[C@@H]1SCCN1S(=O)(=O)c1ccc(-c2ccccc2)cc1)c1ccc(F)cc1` [Compound III, (3S)-3-({[(2S)-3-(biphenyl-4-ylsulfonyl)-1,3-thiazolidin-2-yl]carbonyl}-amino)-3-(4-fluorophenyl)propyl L-valinate hydrochloride]: in data set [1], the “Stability at elevated relative humidity” value is “extended stability at elevated relative humidity”. Besides, the “Weight loss upon desorption” value in data set [1] is “approximately 0.7%”. In addition, in data set [1] (2 days, approximately 95% RH), the “Deliquescence at approximately 95% RH” value was “did not deliquesce”. Also, the “Weight gain on sorption” value in data set [1] (from 5 to 95% relative humidity) is on record as “Approximately 0.9%”. In addition, the Hygroscopicity entry in data set [1] was “low hygroscopicity”; in data set [1] (listed as chloride salt), “non-hygroscopic”; in data set [1] (listed as hydrochloride salt) it was “low hygroscopicity; also recorded: non-hygroscopic”. In the data set with LPS-induced parturition, the “Effect on fractional viability of offspring” value was “dose-dependent increase in the fractional viability of offspring”. Further, the “Fractional viability of offspring” value is 69.41%±15.76% in the data set with LPS-induced parturition (compound III 100 mg/kg oral) and 57.90%±14.89% in the data set with LPS-induced parturition (setting [4]). Also, the Time to delivery in the data set on LPS-induced parturition (setting [4]) is 23.98 ± 0.66 h; in data set [2] (RU486-treated mice, nifedipine 5 mg/kg oral, compound III 100 mg/kg oral, alone or combined), 23.70 ± 0.60 h. Further, the “Effect on time to delivery” value in data set [2] (RU486-treated mice) is recorded as “increase in time to delivery compared to vehicle”. Besides, the solubility (as a rule, how much of the substance goes into solution per volume) in data set [3] is less than 1000 µg/mL.

Consider `CC#C[C@]1(O)CC[C@H]2[C@@H]3CCC4=CC(=O)CCC4=C3[C@@H](c3ccc(N(C)C)cc3)C[C@@]21C` [RU486, mifepristone], for which the “Mean delivery time following induction” value in data set [2] (RU486 2.5 mg/kg s.c. at gestational age 17 days) came to 21 ± 1.00 h. For the same molecule, the “Mice excluded due to death or sacrifice during the study” value in data set [2] (female, CD-1, mouse, in vivo, 2.5 mg/kg) is on record as 3%. In addition, the Pups delivered alive in data set [2] (inducer alone) is 96%.

Turning to `CCOc1ccc(C[C@H]2NC(=O)CCSSC[C@@H](C(=O)N3CCC[C@H]3C(=O)N[C@@H](CCCN)C(=O)NCC(N)=O)NC(=O)[C@H](CC(N)=O)NC(=O)[C@H]([C@@H](C)O)NC(=O)[C@H]([C@@H](C)CC)NC2=O)cc1` [atosiban, reference compound] ([Mpa][dY](Et)ITNCP[Orn]G-NH2; disulfide 1-6), in the data set with LPS-induced parturition, the “Effect on time to delivery” value is recorded as “increase in time to delivery”. Further, the Time to delivery with LPS-induced parturition (atosiban 300 mg/kg s.c., compound III 100 mg/kg oral, alone or combined) was determined as 28.41 ± 2.99 h.

On to `COC(=O)C1=C(C)NC(C)=C(C(=O)OC)C1c1ccccc1[N+](=O)[O-]` [nifedipine, reference compound], for which the “Fractional viability of offspring” value with LPS-induced parturition (setting [4]) was 90.39%±5.34%.
